According to patent US20200085776A1, “Methods of Reducing C-Reactive Protein and/or Treating Cardiovascular Disease” (CARDAX, INC., priority 2018, published 2020):

Test system: LDL
Experiment: Fasting lipid panel: LDL, CHASE clinical study
Type: in vivo, human
Details: for LDL V2 to V6 % Change Max / LDL V2 to V6 % Change Mean (SD) / LDL V2 to V6 % Change Median / LDL V2 to V6 % Change Min / LDL V2 to V6 Change Max / LDL V2 to V6 Change Mean (SD) / LDL V2 to V6 Change Median / LDL V2 to V6 Change Min: baseline to Week 12
From the text: Blood samples shall be obtained under fasted conditions for a lipid panel at V2, V4, V6, V7, and V8. This panel shall include total cholesterol, LDL-C, VLDL-C, HDL-C, and triglycerides. A minimum eight-hour fast (water allowed) is required for the lipid panel.
Fasting lipid profiles and fasting chemistry panels may be obtained within the visit time window on a day separate from the scheduled office visit, within two days before or after the other study procedures. A minimum of eight hours fasted (water allowed ad lib) is required.
Table 7M provides the changes in lipid levels (mg/dL) (V2 to V6) for subjects.

[1] = Group X 12 mg BID, V2 baseline pre-dose, all subjects
[2] = Group X 12 mg BID, V2 baseline pre-dose, subjects with hyperlipidemia
[3] = Group X 12 mg BID, V6 Week 12, all subjects
[4] = Group X 12 mg BID, V6 Week 12, subjects with hyperlipidemia
[5] = Group X 12 mg BID, all subjects
[6] = Group X 12 mg BID, subjects with hyperlipidemia
[7] = Group Z 48 mg BID, V2 baseline pre-dose, all subjects
[8] = Group Z 48 mg BID, V2 baseline pre-dose, subjects with hyperlipidemia
[9] = Group Z 48 mg BID, V6 Week 12, all subjects
[10] = Group Z 48 mg BID, V6 Week 12, subjects with hyperlipidemia
[11] = Group Z 48 mg BID, all subjects
[12] = Group Z 48 mg BID, subjects with hyperlipidemia

SMILES: CC1=C(/C=C/C(C)=C/C=C/C(C)=C/C=C/C=C(C)/C=C/C=C(C)/C=C/C2=C(C)C(=O)C(O)CC2(C)C)C(C)(C)CC(O)C1=O (stereo not shown) [Astaxanthin, astaxanthin]
- LDL Max [1]: 220.0 mg/dL
- LDL Mean (SD) [1]: 111.9 (61.26) mg/dL
- LDL Median [1]: 112.0 mg/dL
- LDL Min [1]: 37.00 mg/dL
- LDL Max [2]: 220.0 mg/dL
- LDL Mean (SD) [2]: 99.00 (66.54) mg/dL
- LDL Median [2]: 73.00 mg/dL
- LDL Min [2]: 37.00 mg/dL
- LDL Max [3]: 236.0 mg/dL
- LDL Mean (SD) [3]: 109.6 (67.65) mg/dL
- LDL Median [3]: 102.0 mg/dL
- LDL Min [3]: 40.00 mg/dL
- LDL Max [4]: 236.0 mg/dL
- LDL Mean (SD) [4]: 94.57 (70.92) mg/dL
- LDL Median [4]: 60.00 mg/dL
- LDL Min [4]: 40.00 mg/dL
- LDL V2 to V6 % Change Max [5]: 21.62%
- LDL V2 to V6 % Change Mean (SD) [5]: −3.46 (13.64) %
- LDL V2 to V6 % Change Median [5]: −7.02%
- LDL V2 to V6 % Change Min [5]: −21.6%
- LDL V2 to V6 Change Max [5]: 17.00 mg/dL
- LDL V2 to V6 Change Mean (SD) [5]: −2.30 (12.98) mg/dL
- LDL V2 to V6 Change Median [5]: -6.50 mg/dL
- LDL V2 to V6 Change Min [5]: -18.0 mg/dL
- LDL V2 to V6 % Change Max [6]: 21.62%
- LDL V2 to V6 % Change Mean (SD) [6]: −5.19 (15.13) %
- LDL V2 to V6 % Change Median [6]: −10.2%
- LDL V2 to V6 % Change Min [6]: −21.6%
- LDL V2 to V6 Change Max [6]: 16.00 mg/dL
- LDL V2 to V6 Change Mean (SD) [6]: −4.43 (12.39) mg/dL
- LDL V2 to V6 Change Median [6]: -11.0 mg/dL
- LDL V2 to V6 Change Min [6]: -18.0 mg/dL
- LDL Max [7]: 206.0 mg/dL
- LDL Mean (SD) [7]: 99.13 (46.59) mg/dL
- LDL Median [7]: 84.00 mg/dL
- LDL Min [7]: 34.00 mg/dL
- LDL Max [8]: 166.0 mg/dL
- LDL Mean (SD) [8]: 89.33 (40.83) mg/dL
- LDL Median [8]: 75.50 mg/dL
- LDL Min [8]: 34.00 mg/dL
- LDL Max [9]: 176.0 mg/dL
- LDL Mean (SD) [9]: 90.31 (37.82) mg/dL
- LDL Median [9]: 81.00 mg/dL
- LDL Min [9]: 49.00 mg/dL
- LDL Max [10]: 176.0 mg/dL
- LDL Mean (SD) [10]: 82.42 (37.25) mg/dL
- LDL Median [10]: 70.00 mg/dL
- LDL Min [10]: 49.00 mg/dL
- LDL V2 to V6 % Change Max [11]: 15.71%
- LDL V2 to V6 % Change Mean (SD) [11]: −14.5 (17.99) %
- LDL V2 to V6 % Change Median [11]: −12.0%
- LDL V2 to V6 % Change Min [11]: −50.0%
- LDL V2 to V6 Change Max [11]: 11.00 mg/dL
- LDL V2 to V6 Change Mean (SD) [11]: −18.9 (24.97) mg/dL
- LDL V2 to V6 Change Median [11]: -11.0 mg/dL
- LDL V2 to V6 Change Min [11]: -83.0 mg/dL
- LDL V2 to V6 % Change Max [12]: 15.00%
- LDL V2 to V6 % Change Mean (SD) [12]: −17.4 (18.43) %
- LDL V2 to V6 % Change Median [12]: −12.5%
- LDL V2 to V6 % Change Min [12]: −50.0%
- LDL V2 to V6 Change Max [12]: 9.00 mg/dL
- LDL V2 to V6 Change Mean (SD) [12]: −20.5 (26.25) mg/dL
- LDL V2 to V6 Change Median [12]: -11.0 mg/dL
- LDL V2 to V6 Change Min [12]: -83.0 mg/dL
